The pIC50 is the negative decadic logarithm of the IC50, by convention in mol/L.

Results on three compounds are retold here after ChEMBL document CHEMBL4041503, “A Hexacyclic, Iboga-Derived Monoterpenoid Indole with a Contracted Tetrahydroazepine C-Ring and Incorporation of an Isoxazolidine Moiety, a Seco-Corynanthean, an Aspidosperma-Aspidosperma Bisindole with Anticancer Properties, and the Absolute Configuration of the Pyridopyrimidine Indole Alkaloid, …” (J Nat Prod, 2016).

Common to all, as to format: functional, cell-based
Experiment [1] has as its system MCF7. Description: Cytotoxicity against human MCF7 cells assessed as reduction in cell viability after 72 hrs by MTT assay. Conditions: MCF7, 72 h.
In experiment [2] the test system is KB/VJ300. In words: Cytotoxicity against human KB/VJ300 cells assessed as reduction in cell viability after 72 hrs by MTT assay. Conditions: KB/VJ300, 72 h.
Experiment [3] is described as follows: Cytotoxicity against human KB/S cells assessed as reduction in cell viability after 72 hrs by MTT assay.
Experiment [4] has as its system HT-29. Description: Cytotoxicity against human HT-29 cells assessed as reduction in cell viability after 72 hrs by MTT assay. The following applies: HT-29, 72 h.
Experiment [5] deals with HCT-116. Description: Cytotoxicity against human HCT116 cells assessed as reduction in cell viability after 72 hrs by MTT assay. Conditions: HCT-116, 72 h. On the technique in general: Tetrazolium dyes change colour on reduction, which living cells bring about.
The subject of experiment [6] is PC-3. Description: Cytotoxicity against human PC3 cells assessed as reduction in cell viability after 72 hrs by MTT assay. The following applies: PC-3, 72 h.
The subject of experiment [7] is LNCaP. In words: Cytotoxicity against human LNCAP cells assessed as reduction in cell viability after 72 hrs by MTT assay.
Experiment [8] has as its system MDA-MB-231. Description: Cytotoxicity against human MDA-MB-231 cells assessed as reduction in cell viability after 72 hrs by MTT assay. Conditions: MDA-MB-231, 72 h.
Experiment [9] relates to A549. In words: Cytotoxicity against human A549 cells assessed as reduction in cell viability after 72 hrs by MTT assay. The following applies: A549, 72 h.

Molecules are shown by their SMILES. pIC50: −log10 of the molar value.

Turning to `CC[C@]12C=CCN3CC[C@]4(C(=C(C(=O)OC)C1)Nc1cc5c(cc14)[C@@H]1[C@H](O5)[C@@H](O)[C@@]4(CC)CC(C(=O)OC)=C5Nc6c(cc(O)c(OC)c6OC)[C@@]56CCN1[C@@H]46)[C@@H]32`, the negative logarithm of the IC50 (pIC50) is 6.22 in [1]; less than 5.00 in experiment [2]; 5.82 in experiment [3]; 5.96 in experiment [4]; 6.10 in experiment [5]; 6.70 in experiment [6]. Besides, the pIC50 in experiment [7] is 6.05; in experiment [8] it was 6.05; in experiment [9], 5.00.
On to `CC[C@@]12CC(C(=O)OC)=C3Nc4c(cc(O)c(OC)c4OC)[C@@]34CCN([C@@H]3c5cc6c(cc5O[C@@H]3[C@H]1O)NC1=C(C(=O)OC)C[C@]35CCO[C@H]3CCN3CC[C@@]16[C@@H]35)[C@@H]24`, for which the pIC50 in experiment [1] is 5.23; in [2], 5.13; in [3] it was 6.30; in experiment [4] it was 6.52; in experiment [5] it was 6.40; in experiment [6] it was 5.96. In addition, the pIC50 in [7] was 6.52; in experiment [8], 6.10; in experiment [9], less than 5.00.
For `CC[C@]1(O)C[C@H]2CN(CCc3c([nH]c4ccccc34)[C@@](C(=O)OC)(c3cc4c(cc3OC)N(C=O)[C@H]3[C@@](O)(C(=O)OC)[C@H](OC(C)=O)[C@]5(CC)C=CCN6CC[C@]43[C@@H]65)C2)C1` [VINCRISTINE], the pIC50 in experiment [2] is 5.23; in experiment [3], 8.70.
